Experimental data: paper PMC4317238 (Pharmacology Research & Perspectives, 2015)
Ends that are not written are not given here.

Key:
NPSR(−/−) mice = test: Recovery of righting reflex; assay type: in vivo, mouse (congenic to CD-1); conditions: diazepam 15 mg/kg i.p.
[1] = molecular target: T1, mouse NPS receptor (NPSR) (Mus musculus, UniProt Q8BZP8); test: Calcium mobilization assay, agonist; assay type: cell-based; conditions: HEK293mNPSR; mean ± SEM
T1 sequence (Q8BZP8 1-371): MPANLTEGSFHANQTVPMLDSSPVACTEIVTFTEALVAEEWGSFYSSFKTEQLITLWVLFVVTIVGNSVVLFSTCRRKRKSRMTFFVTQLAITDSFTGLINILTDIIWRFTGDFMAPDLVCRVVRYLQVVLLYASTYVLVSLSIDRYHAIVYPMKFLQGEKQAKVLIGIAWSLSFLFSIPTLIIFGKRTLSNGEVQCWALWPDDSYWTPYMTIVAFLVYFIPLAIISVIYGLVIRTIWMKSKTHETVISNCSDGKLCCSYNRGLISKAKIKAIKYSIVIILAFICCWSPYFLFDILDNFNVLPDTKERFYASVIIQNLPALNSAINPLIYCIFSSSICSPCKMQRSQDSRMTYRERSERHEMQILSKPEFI

their receptors = conditions: ref Rizzi et al. 2014; Ruzza et al. 2014; cited from earlier work
[2] = cited from earlier work

CN1C(=O)CN=C(c2ccccc2)c2cc(Cl)ccc21 [diazepam]
sensitivity to diazepam, NPSR wild type vs. knockout (NPSR(−/−) mice): no differences were measured

SFRNGVGTGMKKTSFQRAKS [NPS, neuropeptide S]
Emax (increase in intracellular calcium) [1]: 417 ± 34 % over the basal levels

neurokinin A [NK-A]
potency relative to PWT derivative, calcium mobilization (their receptors): more potent than their PWT derivatives

nociceptin/orphanin FQ [N/OFQ]
potency relative to PWT derivative, calcium mobilization (their receptors): more potent than their PWT derivatives
duration of action, N/OFQ ([2]; ref Rizzi et al. 2014): ~20 min

substance P [SP]
potency relative to PWT derivative, calcium mobilization (their receptors): more potent than their PWT derivatives
duration of action, SP and PWT2-SP ([2]; ref Ruzza et al. 2014): ~5 min
